# Values of other authors, collected in patent US6514490B2, “Compositions containing an antifungal and a cationic agent” (Janssen Pharmaceutica N.V., priority 1997, dated 2003).
# Details: prior art medicated shampoo, anti-dandruff treatment
row,Compound,number of patients not responding to particular medicated shampoo
1,CC(=O)N1CCN(c2ccc(OCC3COC(Cn4ccnc4)(c4ccc(Cl)cc4Cl)O3)cc2)CC1 (centres unmarked) [ketoconazole],up to 30%
2,S=[Se]=S [selenium sulfide],up to 40%
